Data from patent US20140369933A1, “FLUORINE-18 LABELED HYDROGEN ION PROBES” (The Trustees of The University of Pennsylvania, priority 2011, published 2014).
Where two headings read alike, the source gives them in different places.

How the values were obtained:
[1] = UV-VIS absorption maxima of indicator forms; type: physicochemical; conditions: for absorption maximum of acidic form: acidic form of indicator; for absorption maximum of basic form: basic form of indicator
Method: (§1) The values of pKa of the indicators were determined by UV-VIS spectroscopy from the pH dependence of absorption of their basic forms and other spectroscopic investigations of the products were performed by Beckman-Coulter DU 530 spectrophotometer using acetate, phosphate, TRIZMA, and borate buffers for different values of pH. The number of fluorine atoms in the molecule was also determined by comparison of the ratio of sample activity to absorption of the basic forms of indicators.

[2] = pKa of the indicators by UV-VIS spectroscopy from pH dependence of absorption of basic forms
Method: as §1

[3] = parental compound, intravenous injection, renal excretion; cited from earlier work
[4] = UV-VIS, pH dependence of absorption of basic form, acetate, phosphate, TRIZMA, borate buffers

Compound	absorption maximum of acidic form [1]	absorption maximum of basic form [1]	pKa [2]	pKa [2, 4]	half-life, mostly renal clearance [3]
O=S1(=O)OC(c2ccc(O)c([18F])c2)(c2ccc(O)c([18F])c2)c2ccccc21 [DFPR, difluorophenol red]	428 nm	570 nm	6.4	–	–
Cc1cc(C2(c3ccc(O)c(C)c3)OS(=O)(=O)c3ccccc32)ccc1O [Cresol Red, ortho-cresolsulfonphthalein, reference compound]	–	572 nm	–	8.2	–
monofluorocresolsulfonphthalein [MFCP]	–	582 nm	–	–	–
Cc1cc(C2(c3cc(C)c(O)c([18F])c3)OS(=O)(=O)c3ccccc32)ccc1O (stereo not drawn) [MFCR, MonoFluoroCresol Red]	–	576 nm	7.6	–	–
Cc1cc(O)ccc1C1(c2ccc(O)cc2C)OS(=O)(=O)c2ccccc21 [CP, cresolsulfonphthalein, reference compound]	–	–	–	8.3	–
Cc1c(C2(c3cc(C(C)C)c(O)c([18F])c3C)OS(=O)(=O)c3ccccc32)cc(C(C)C)c(O)c1[18F] [DFTB, difluorothymolsulfonphthalein]	–	605 nm	7.65	–	–
O=S1(=O)OC(c2ccc(O)cc2)(c2ccc(O)c([18F])c2)c2ccccc21 (stereo not drawn) [MFPR, monofluorophenol red]	436 nm	564 nm	7.3	–	–
difluorocresolsulfonphthalein [DFCP]	–	589 nm	–	–	–
O=S1(=O)OC(c2ccc(O)cc2)(c2ccc(O)cc2)c2ccccc21 [Phenol Red, phenolsulfonphthalein, reference compound]	433 nm	558 nm	7.9	–	20 to 30 min
Cc1cc(C2(c3cc(C)c(O)c([18F])c3)OS(=O)(=O)c3ccccc32)cc([18F])c1O [DFCR, DiFluoroCresol Red]	–	582 nm	6.8	–	–

Further lines, with some results ahead:

absorption maximum of acidic form [1]	absorption maximum of basic form [1]	pKa [2]	pKa [2, 4]	Compound	half-life, mostly renal clearance [3]
–	660 nm	–	7.7	monofluoronaphtholphthalein	–
–	597 nm	–	8.85	Cc1cc(O)c(C(C)C)cc1C1(c2cc(C(C)C)c(O)cc2C)OS(=O)(=O)c2ccccc21 [Thymol Blue, thymolsulfonphthalein, reference compound]	–
–	653 nm	7.95	–	O=C1OC(c2ccc(O)c3ccccc23)(c2ccc(O)c3ccccc23)c2ccccc21 [naphtholphthalein, reference compound]	–
–	668 nm	7.2	–	O=C1OC(c2cc([18F])c(O)c3ccccc23)(c2cc([18F])c(O)c3ccccc23)c2ccccc21 [difluoronaphtholphthalein]	–
–	592 nm	6.4	–	Cc1cc(O)c([18F])cc1C1(c2cc([18F])c(O)c([18F])c2C)OS(=O)(=O)c2ccccc21 (stereo not drawn) [TFCP, trifluorocresolsulfonphthalein]	–
–	599 nm	8.25	–	Cc1cc(O)c(C(C)C)cc1C1(c2cc(C(C)C)c(O)c([18F])c2C)OS(=O)(=O)c2ccccc21 (stereo not drawn) [MFTB, MonoFluoro Thymol Blue]	–
–	572 nm	5.9	–	O=S1(=O)OC(c2ccc(O)c([18F])c2)(c2cc([18F])c(O)c([18F])c2)c2ccccc21 (stereo not drawn) [TFPR, trifluorophenol red]	–
–	553 nm	9.75	–	O=C1OC(c2ccc(O)cc2)(c2ccc(O)cc2)c2ccccc21 [phenolphthalein, reference compound]	–
–	572 nm	–	–	trifluorophenol red [TFPR]	–
–	564 nm	8.7	–	O=C1OC(c2ccc(O)c([18F])c2)(c2ccc(O)c([18F])c2)c2ccccc21 [difluorophenolphthalein]	–
–	558 nm	9.3	–	O=C1OC(c2ccc(O)cc2)(c2ccc(O)c([18F])c2)c2ccccc21 (stereo not drawn) [monofluorophenolphthalein]	–
